Drawing on US11180474B2 (BRISTOL-MYERS SQUIBB COMPANY, priority 2016, dated 2021), this text covers IC50 for 15 molecules.

For one assay, the target named is T1, human TLR9 (Homo sapiens, UniProt Q9NR96).
T1 construct: host or cells: HEK-Blue cells
T1 sequence (Q9NR96 26-1032): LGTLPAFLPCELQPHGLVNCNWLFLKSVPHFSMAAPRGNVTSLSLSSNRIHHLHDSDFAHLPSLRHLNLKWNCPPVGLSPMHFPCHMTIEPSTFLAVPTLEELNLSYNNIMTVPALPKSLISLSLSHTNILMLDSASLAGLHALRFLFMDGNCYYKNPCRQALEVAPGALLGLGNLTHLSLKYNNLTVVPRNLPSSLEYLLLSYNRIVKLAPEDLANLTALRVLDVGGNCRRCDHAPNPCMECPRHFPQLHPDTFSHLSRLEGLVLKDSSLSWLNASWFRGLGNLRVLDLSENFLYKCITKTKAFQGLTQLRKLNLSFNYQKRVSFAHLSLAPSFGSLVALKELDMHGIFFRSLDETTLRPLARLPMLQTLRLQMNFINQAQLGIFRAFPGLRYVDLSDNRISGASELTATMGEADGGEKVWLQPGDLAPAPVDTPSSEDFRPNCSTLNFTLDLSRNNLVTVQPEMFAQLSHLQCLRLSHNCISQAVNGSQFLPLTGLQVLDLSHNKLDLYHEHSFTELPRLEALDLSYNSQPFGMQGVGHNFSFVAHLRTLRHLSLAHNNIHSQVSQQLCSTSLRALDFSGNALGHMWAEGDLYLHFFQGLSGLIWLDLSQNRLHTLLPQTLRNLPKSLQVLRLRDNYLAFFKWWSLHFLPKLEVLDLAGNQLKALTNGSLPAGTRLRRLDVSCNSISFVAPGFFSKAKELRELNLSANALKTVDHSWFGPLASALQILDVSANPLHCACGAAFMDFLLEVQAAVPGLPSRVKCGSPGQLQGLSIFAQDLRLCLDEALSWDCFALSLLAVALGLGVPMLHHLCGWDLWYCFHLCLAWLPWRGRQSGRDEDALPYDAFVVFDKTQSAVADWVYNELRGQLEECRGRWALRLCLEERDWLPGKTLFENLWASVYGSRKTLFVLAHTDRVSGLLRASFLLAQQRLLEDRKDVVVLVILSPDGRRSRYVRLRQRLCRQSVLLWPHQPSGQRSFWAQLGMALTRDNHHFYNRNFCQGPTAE
In words: TLR9 inhibition reporter assay (HEK-Blue cells, SEAP reporter, ODN2006 stimulation). Type of assay: cell-based. The note with it: HEK-Blue cells overexpressing human TLR9, ODN2006 5 nM. The essentials: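 Human TLR7/8/9 HEK-Blue reporter lines; dose range 0.05 nM–50 μM; 30 min RT preincubation; stimulus gardiquimod 7.5 μM / R848 15.9 μM / ODN2006 5 nM respectively; 22 h, 37 °C; SEAP detected colorimetrically.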
On the technique in general: Reporter assays use an easily measured gene product as a stand-in for the process of interest.

Another assay has as its target T2, human TLR7 (Homo sapiens, UniProt Q9NYK1).
T2 construct: host or cells: HEK-Blue cells
T2 sequence (Q9NYK1 27-1049): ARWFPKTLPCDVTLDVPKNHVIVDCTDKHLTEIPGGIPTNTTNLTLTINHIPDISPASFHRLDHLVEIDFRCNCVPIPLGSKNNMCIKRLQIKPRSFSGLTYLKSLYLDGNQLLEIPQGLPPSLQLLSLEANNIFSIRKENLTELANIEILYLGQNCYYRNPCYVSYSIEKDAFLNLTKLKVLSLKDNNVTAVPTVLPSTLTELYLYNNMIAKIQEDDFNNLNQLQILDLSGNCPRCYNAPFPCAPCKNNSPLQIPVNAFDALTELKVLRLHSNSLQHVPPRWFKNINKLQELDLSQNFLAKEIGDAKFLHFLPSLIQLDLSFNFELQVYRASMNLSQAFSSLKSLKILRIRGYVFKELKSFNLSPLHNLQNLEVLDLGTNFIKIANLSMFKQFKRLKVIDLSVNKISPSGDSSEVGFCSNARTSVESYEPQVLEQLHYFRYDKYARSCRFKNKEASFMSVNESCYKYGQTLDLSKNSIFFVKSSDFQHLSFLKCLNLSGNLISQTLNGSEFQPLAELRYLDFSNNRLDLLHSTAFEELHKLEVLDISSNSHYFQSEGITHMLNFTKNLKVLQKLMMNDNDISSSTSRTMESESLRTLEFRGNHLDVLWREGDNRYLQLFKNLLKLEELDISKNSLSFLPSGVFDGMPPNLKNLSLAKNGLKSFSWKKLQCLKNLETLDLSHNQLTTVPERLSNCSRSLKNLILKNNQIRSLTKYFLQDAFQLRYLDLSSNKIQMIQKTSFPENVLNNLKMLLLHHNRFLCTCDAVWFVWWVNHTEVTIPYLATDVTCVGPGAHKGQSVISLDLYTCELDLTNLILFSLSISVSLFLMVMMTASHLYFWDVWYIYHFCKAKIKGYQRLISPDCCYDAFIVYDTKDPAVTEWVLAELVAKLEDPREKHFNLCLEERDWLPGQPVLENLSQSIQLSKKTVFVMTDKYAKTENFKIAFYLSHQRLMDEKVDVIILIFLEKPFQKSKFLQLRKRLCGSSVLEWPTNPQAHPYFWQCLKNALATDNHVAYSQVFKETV
Description: TLR7 inhibition reporter assay (HEK-Blue cells, SEAP reporter, gardiquimod stimulation). Format: cell-based. As to conditions: HEK-Blue cells overexpressing human TLR7, gardiquimod 7.5 μM. In a few lines:
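Cells (15000/well for TLR7, 20,000 for TLR8) were treated with compounds over 0.05 nM-50 μM final. After 22 h at 37° C, 5% CO2, SEAP was measured with HEK-Blue Detection reagent; percent inhibition was taken as reduction of agonist-plus-DMSO signal relative to a known inhibitor.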

For the molecule `COc1ccc(-c2[nH]c3ccc(C4CCN(C(=O)CN5CCC[C@H](C(=O)N6C(C)CCC6C)C5)CC4)cc3c2C(C)C)cc1OC` (stereo partly drawn) [Example 300, 1-(4-(2-(3,4-dimethoxyphenyl)-3-isopropyl-1H-indol-5-yl)piperidin-1-yl)-2-((3S)-3-(2,5-dimethylpyrrolidine-1-carbonyl)piperidin-1-yl)ethan-1-one], the half-maximal inhibitory concentration (IC50) – broadly, the point on the concentration scale where inhibition reaches its midpoint – was 321 nM on human TLR9 and 85 nM at human TLR7.
The corresponding values for `COc1ccc(-c2[nH]c3ccc(C4CCN(C(=O)CN5CCC[C@H](C(=O)N6CC[C@H](O)C6)C5)CC4)cc3c2C(C)C)cc1OC` [Example 301, 1-(4-(2-(3,4-dimethoxyphenyl)-3-isopropyl-1H-indol-5-yl)piperidin-1-yl)-2-((S)-3-((S)-3-hydroxypyrrolidine-1-carbonyl)piperidin-1-yl)ethan-1-one] are 3120 nM and 66 nM.
On the same counts, the results for `COc1ccc(-c2[nH]c3ccc(C4CCN(C(=O)CN5CCC[C@@H](C(=O)N6CCN(C(C)C)CC6)C5)CC4)cc3c2C(C)C)cc1OC` [Example 302, (R)-1-(4-(2-(3,4-dimethoxyphenyl)-3-isopropyl-1H-indol-5-yl)piperidin-1-yl)-2-(3-(4-isopropylpiperazine-1-carbonyl)piperidin-1-yl)ethan-1-one] are 564 nM and 40 nM.
The corresponding values for `COc1ccc(-c2[nH]c3ccc(C4CCN(C(=O)CN5CCC[C@@H](C(=O)N6CCCC6)C5)CC4)cc3c2C(C)C)cc1OC` [Example 303, (R)-1-(4-(2-(3,4-dimethoxyphenyl)-3-isopropyl-1H-indol-5-yl)piperidin-1-yl)-2-(3-(pyrrolidine-1-carbonyl)piperidin-1-yl)ethan-1-one] are 1790 nM and 30 nM.
For `COc1ccc(-c2[nH]c3ccc(C4CCN(C(=O)CN5CCC[C@@H](C(=O)N(C)C(C)C)C5)CC4)cc3c2C(C)C)cc1OC` [Example 304, (R)-1-(2-(4-(2-(3,4-dimethoxyphenyl)-3-isopropyl-1H-indol-5-yl)piperidin-1-yl)-2-oxoethyl)-N-isopropyl-N-methylpiperidine-3-carboxamide], the IC50 at human TLR9 stood at 2750 nM; against human TLR7 it was 64 nM.
On the same counts, the results for `COc1ccc(-c2[nH]c3ccc(C4CCN(C(=O)CN5CCC[C@@H](C(=O)N6CCC(N(C)C)CC6)C5)CC4)cc3c2C(C)C)cc1OC` [Example 305, (R)-1-(4-(2-(3,4-dimethoxyphenyl)-3-isopropyl-1H-indol-5-yl)piperidin-1-yl)-2-(3-(4-(dimethylamino)piperidine-1-carbonyl)piperidin-1-yl)ethan-1-one] are 561 nM and 27 nM.
In the case of `COc1ccc(-c2[nH]c3ccc(C4CCN(C(=O)CN5CCC[C@@H](C(=O)N6CCC(CCO)CC6)C5)CC4)cc3c2C(C)C)cc1OC` [Example 306, (R)-1-(4-(2-(3,4-dimethoxyphenyl)-3-isopropyl-1H-indol-5-yl)piperidin-1-yl)-2-(3-(4-(2-hydroxyethyl)piperidine-1-carbonyl)piperidin-1-yl)ethan-1-one], the IC50 on human TLR9 turned out to be 2680 nM; on human TLR7, 153 nM.
Turning to `COc1ccc(-c2[nH]c3ccc(C4CCN(C(=O)CN5CCC[C@@H](C(=O)N6CCN(CCN7CCCC7)CC6)C5)CC4)cc3c2C(C)C)cc1OC` [Example 307, (R)-1-(4-(2-(3,4-dimethoxyphenyl)-3-isopropyl-1H-indol-5-yl)piperidin-1-yl)-2-(3-(4-(2-(pyrrolidin-1-yl)ethyl)piperazine-1-carbonyl)piperidin-1-yl)ethan-1-one], the half-maximal inhibitory concentration (IC50) at human TLR9 worked out at 579 nM; against human TLR7, 52 nM.
On the same counts, the results for `COc1ccc(-c2[nH]c3ccc(C4CCN(C(=O)CN5CCC[C@@H](C(=O)NCC#N)C5)CC4)cc3c2C(C)C)cc1OC` [Example 308, (R)—N-(cyanomethyl)-1-(2-(4-(2-(3,4-dimethoxyphenyl)-3-isopropyl-1H-indol-5-yl)piperidin-1-yl)-2-oxoethyl)piperidine-3-carboxamide] are 2610 nM and 37 nM.
Consider `COc1ccc(-c2[nH]c3ccc(C4CCN(C(=O)CN5CCC[C@@H](C(=O)NCC(N)=O)C5)CC4)cc3c2C(C)C)cc1OC` [Example 309, (R)—N-(2-amino-2-oxoethyl)-1-(2-(4-(2-(3,4-dimethoxyphenyl)-3-isopropyl-1H-indol-5-yl)piperidin-1-yl)-2-oxoethyl)piperidine-3-carboxamide], for which the IC50 on human TLR9 was found to be 6920 nM; against human TLR7, 31 nM.
On the same counts, the results for `COc1ccc(-c2[nH]c3ccc(C4CCN(C(=O)CN5CCC[C@@H](C(=O)N6CC7CNCC7C6)C5)CC4)cc3c2C(C)C)cc1OC` (stereo partly drawn) [Example 310, 1-(4-(2-(3,4-dimethoxyphenyl)-3-isopropyl-1H-indol-5-yl)piperidin-1-yl)-2-((3R)-3-(octahydropyrrolo[3,4-c]pyrrole-2-carbonyl)piperidin-1-yl) ethan-1-one] are 5230 nM and 290 nM.
On the same counts, the results for `COc1ccc(-c2[nH]c3ccc(C4CCN(C(=O)CN5CCC[C@@H](C(=O)N6C(C)CCC6C)C5)CC4)cc3c2C(C)C)cc1OC` (stereo partly drawn) [Example 311, 1-(4-(2-(3,4-dimethoxyphenyl)-3-isopropyl-1H-indol-5-yl)piperidin-1-yl)-2-((3R)-3-(2,5-dimethylpyrrolidine-1-carbonyl)piperidin-1-yl)ethan-1-one] are 2480 nM and 148 nM.
On the same counts, the results for `COc1ccc(-c2[nH]c3ccc(C4CCN(CC(=O)N(C)C)CC4)cc3c2C(C)C)cc1OC` [Example 312, 2-(4-(2-(3,4-dimethoxyphenyl)-3-isopropyl-11H-indol-5-yl)piperidin-1-yl)-N,N-dimethylacetamide] are 1370 nM and 8 nM.
Consider `COc1ccc(-c2[nH]c3ccc(C4CCN(C(=O)CO)CC4)cc3c2C(C)C)cc1OC` [Example 313, 1-(4-(2-(3,4-dimethoxyphenyl)-3-isopropyl-1H-indol-5-yl)piperidin-1-yl)-2-hydroxyethanone], for which the IC50 against human TLR9 was 48300 nM; on human TLR7, 73 nM.
The corresponding values for `COc1ccc(-c2[nH]c3ccc(C4CCN(C(=O)COC(C)C)CC4)cc3c2C(C)C)cc1OC` [Example 314, 1-(4-(2-(3,4-dimethoxyphenyl)-3-isopropyl-1H-indol-5-yl)piperidin-1-yl)-2-isopropoxyethan-1-one] are 26600 nM and 284 nM.
